From patent US11805778B2, “Composition including an antimicrobial boosting agent including an amphocarboxylate and methods of increasing the antimicrobial effectiveness of a composition” (KIMBERLY-CLARK WORLDWIDE, INC., priority 2018, dated 2023)

Each molecule was assayed on B. cepacia (ATCC 25416) (assay: Minimum Effective Concentration (MEC) Test Method). Details: no antimicrobial boosting agent; B. cepacia, 24 hours.
Assay type: cell-based, Burkholderia cepacia
Procedure: Initial testing was conducted to screen a variety of surfactants in researching for potential antimicrobial boosting agents. The initial testing followed the methodology as described in the Minimum Effective Concentration (“MEC”) Test Method described in the Test Methods section herein. To summarize, the MEC testing paired a variety of potential antimicrobial boosting agents with a variety of known antimicrobial agents to determine the MEC of the respective antimicrobial agent that must be used to provide an effective antimicrobial result, as described in further detail in the Test Methods section. The more positive the boosting characteristics of an antimicrobial boosting agent, then the lower the MEC that would be required for the paired antimicrobial agent. It is to be noted that the molarities listed in Table 1 are approximate values that were calculated based on the estimated activities of the ingredients and the molecular weights of the active ingredients. In instances where an exact activity was not available for an ingredient blend, the ingredient blend activity was estimated as the average of the upper and lower limits of the specification provided by the manufacturer of such blend. In instances where an exact molecular weight could not be calculated (for example, in compounds derived from a natural oil like coconut oil), the molecular weight of the active was estimated based on a weighted average of the molecular weights of the constituent species.
The Minimum Effective Concentration Test Method discussed herein began by adding B. cepacia (ATCC 25416) culture at a final concentration of approximately 5×10^6 CFU/mL to the composition to be challenged. The challenged composition was then allowed to incubate at room temperature for 24 hours. After 24 hours, a preservative neutralizing broth was added to the mixture and measurements were subsequently taken to determine the concentration of B. cepacia still remaining after exposure to the test composition.
The Minimum Effective Concentration was determined by completing the process described above on a series of compositions with the same concentration of antimicrobial boosting agent, but with different concentrations of antimicrobial agent. The Minimum Effective Concentration of antimicrobial agent for any given value of antimicrobial boosting agent was defined as the minimum concentration of antimicrobial agent required to reduce the concentration of B. cepacia to a level below the detection threshold for the test method, which was approximately 100 CFU/mL. In instances where multiple rounds of Minimum Effective Concentration testing were completed, the value reported is the mean of the Minimum Effective Concentration values generated by each individual series of tests.
In the case of `CC(O)C(=O)O` (centres unmarked) [Purac FCC 88, Lactic Acid], the “MEC of antimicrobial agent Lactic Acid (Purac FCC 88)” value (shortened to “MEC … (Purac FCC 88)”) is reported as 60 mmol/L.
In the case of `O=C([O-])c1ccccc1.[Na+]` [Sodium Benzoate], the “MEC of antimicrobial agent Sodium Benzoate” value is reported as 7.5 mmol/L.
For `CCCCCCCC(=O)NO` [Zeastat, Caprylhydroxamic Acid], the “MEC of antimicrobial agent Caprylhydroxamic Acid (Zeastat)” value (from here on “MEC … (Zeastat)”) was 10 mmol/L.

Same assay, conditions: paired with the labelled potential boosting agent at 5 mmol/L; B. cepacia, 24 hours
Lauryl Glucoside [Plantaren 1200 N UP] was tested, and the “MEC … (Purac FCC 88)” value was greater than 30 mmol/L and the “MEC of antimicrobial agent Sodium Benzoate” value was 10 mmol/L.
For “Sodium Cocoamphopropionate [Rewoteric AM KSF 40]”, the “MEC … (Zeastat)” value was 4 mmol/L, the “MEC of antimicrobial agent Hydroxyacetophenone (SymSave H)” value (from here on “MEC … (SymSave H)”) was 10 mmol/L and the “MEC … (Purac FCC 88)” value was less than 10 mmol/L. For the same molecule, the “MEC of antimicrobial agent Sodium Benzoate” value was 1.8 mmol/L.
In the case of “Laureth-3 Phosphate [Dermalcare MAP L-130]”, the “MEC … (Purac FCC 88)” value is reported as 40 mmol/L.
For “Disodium Capryloamphodiacetate [Sopalteric DSCYA-27]”, the “MEC … (Purac FCC 88)” value was 30 mmol/L.
In the case of “Sodium Cocoamphoacetate [Mackam HPC-32L]”, the “MEC … (Purac FCC 88)” value is reported as 40 mmol/L.
With Sodium Cocoamphoacetate [ColaTeric 1C] the “MEC … (SymSave H)” value was 15 mmol/L and the “MEC … (Purac FCC 88)” value was 30 mmol/L.
For “Sodium Methyl Cocoyl Taurate [Hostapon CT Paste]”, the “MEC of antimicrobial agent Sodium Benzoate” value was 2.5 mmol/L.
For Cocamidopropyl Betaine [Dehyton PK-45], the “MEC of antimicrobial agent Sodium Benzoate” value was greater than 15 mmol/L.
For `C[N+](C)(CCO)CC(O)C[N+](C)(C)CCO.[Cl-].[Cl-]` [Cola Moist 200, Hydroxypropyl Bis-Hydroxyethyldimonium Chloride], the “MEC … (Purac FCC 88)” value was 50 mmol/L.
“Disodium Cocoamphodipropionate [Mackam 2CSF-40CG]” was tested, and the “MEC … (Zeastat)” value was 6 mmol/L, the “MEC … (SymSave H)” value was 10 mmol/L and the “MEC … (Purac FCC 88)” value was less than 10 mmol/L. For the same molecule, the “MEC of antimicrobial agent Sodium Benzoate” value was 2.5 mmol/L.
For “Caprylyl/Capryl Glucoside [Plantaren 810 UP]”, the “MEC … (Purac FCC 88)” value was 60 mmol/L.
For “Sodium Laurylglucosides Hydroxypropylsulfonate [Suga Nate 160]”, the “MEC … (Purac FCC 88)” value was greater than 50 mmol/L.
For Polysorbate 20 [Eumulgin SML-20], the “MEC … (Zeastat)” value was 10 mmol/L, the “MEC … (SymSave H)” value was greater than 20 mmol/L and the “MEC … (Purac FCC 88)” value was 50 mmol/L. For the same molecule, the “MEC of antimicrobial agent Sodium Benzoate” value was 5 mmol/L.
In the case of `CCCCCCCC[N+](C)(C)[O-]` [Techmine 280, Octyldimethylamine Oxide], the “MEC … (Purac FCC 88)” value is reported as 40 mmol/L.
“Sodium Lauroamphoacetate [Sopalteric SLA-32]” was tested, and the “MEC … (Purac FCC 88)” value was 20 mmol/L.
For `CCCCCCCCCCCCCCCC[N+](C)(C)CC(=O)[O-]` [Mackam CET, Cetyl Betaine], the “MEC … (Purac FCC 88)” value was 40 mmol/L.
For Coco-Glucoside [Plantacare 818 UP], the “MEC … (Purac FCC 88)” value was greater than 60 mmol/L.
In the case of “Disodium PEG-12 Dimethicone Sulfosuccinate [Mackanate Ultra Si]”, the “MEC … (Purac FCC 88)” value is reported as 40 mmol/L.
`CCCCCCCC[N+](C)(C)CC(=O)[O-]` [Mackam BW-139, Octyl Betaine] was tested, and the “MEC … (Purac FCC 88)” value was 40 mmol/L.
For “Sodium Cocoyl Isethionate [Hostapon SCI 85 P]”, the “MEC … (Purac FCC 88)” value was 50 mmol/L.
For “PEG-80 Sorbitan Laurate [Alkamuls PSML-80/72LD]”, the “MEC … (Purac FCC 88)” value was 50 mmol/L.
“PEG-40 Hydrogenated Castor Oil [Tagat CH40]” was tested, and the “MEC … (Zeastat)” value was 10 mmol/L, the “MEC … (SymSave H)” value was greater than 20 mmol/L and the “MEC … (Purac FCC 88)” value was greater than 60 mmol/L.
With `CCCCCCCCCCCC(=O)OC(C)C(=O)OC(C)C(=O)[O-].[Na+]` (centres unmarked) [Dermosoft SLL, Sodium Lauroyl Lactylate] the “MEC … (Purac FCC 88)” value was 30 mmol/L.
“Disodium Cocoamphodiacetate [Mackam 2C-75]” was tested, and the “MEC … (Zeastat)” value was 4 mmol/L, the “MEC … (SymSave H)” value was 10 mmol/L and the “MEC … (Purac FCC 88)” value was 30 mmol/L. For the same molecule, the “MEC of antimicrobial agent Sodium Benzoate” value was 2.5 mmol/L.
For Cocamide DIPA [Cola Liquid DC], the “MEC … (SymSave H)” value was 20 mmol/L and the “MEC … (Purac FCC 88)” value was “Unstable”.

Same assay, conditions: summary in words of the MEC testing of Table 1
With “Disodium Capryloamphodiacetate [Sopalteric DSCYA-27]” the “performance as antimicrobial boosting agent” value (“performance” below) was “provided at least some antimicrobial boosting effect”.
In the case of sodium cocoamphoacetate, the “performance” value is reported as “provided at least some antimicrobial boosting effect”.
With “Disodium Cocoamphodipropionate [Mackam 2CSF-40CG]” the “performance” value was “provided at least some antimicrobial boosting effect”.
In the case of Polysorbate 20 [Eumulgin SML-20], the “performance” value is reported as “did not perform well as antimicrobial boosting agents”.
In the case of “Sodium Lauroamphoacetate [Sopalteric SLA-32]”, the “performance” value is reported as “provided at least some antimicrobial boosting effect”.
With sodium cocoamphodipropionate the “performance” value was “provided at least some antimicrobial boosting effect”.
With Coco-Glucoside [Plantacare 818 UP] the “performance” value was “did not perform well as antimicrobial boosting agents”.
With “Sodium Cocoyl Isethionate [Hostapon SCI 85 P]” the “performance” value was “did not perform well as antimicrobial boosting agents”.
For “PEG-40 Hydrogenated Castor Oil [Tagat CH40]”, the “performance” value was “did not perform well as antimicrobial boosting agents”.
“Disodium Cocoamphodiacetate [Mackam 2C-75]” was tested, and the “performance” value was “provided at least some antimicrobial boosting effect”.
In the case of Cocamide DIPA [Cola Liquid DC], the “performance” value is reported as “did not perform well as antimicrobial boosting agents”.
